# Laboratory results taken from patent US9872903B2, “Targeting thymidine kinase photosensitizer and pharmaceutical composition and use for cancer treatment thereof” (ZHEJIANG HISUN PHARMACEUTICAL CO., LTD., priority 2012, dated 2018).
# Experiments:
# PC3 cell line [1] = test: in vitro light-induced cytotoxicity test (PDT, MTT assay); type: cell-based, human; conditions: for survival rate: Pharmaceutical 3 0.003 μM
# Procedure: In the present invention, the in vitro therapeutic effect of PDT was compared among HPPH, HPPH-thymidine conjugate and HPPH-thymidine conjugate in combination with chemotherapeutic agent paclitaxel in an in vitro light-induced cytotoxicity test.
# Procedure: in this Example, a highly metastatic and […] prostatic cancer cell, PC3 cell line, was selected. The PC3 cells were cultured in RPMI 1640 medium supplemented with 10% fetal bovine serum, L-glutamine, penicillin, and streptomycin at 37° C., 5% CO2 and 95% air, and 100% humidity. Subsequently, the PC3 cells were inoculated in the complete medium in a 96-well plate at the density of 5×10^3 cell/well with 6 multiple wells arranged. After cultured at 37° C. overnight, the cells were treated by the photosensitizer or paclitaxel at gradient concentrations in darkness for 24 h. For the treatment using HPPH-thymidine conjugate in combination with paclitaxel, paclitaxel was additionally injected 8 h before exposure, and the concentrations of paclitaxel and the photosensitizer were the same as above.
# After the pharmaceutical-containing medium was replaced by fresh medium, the cells were irradiated by light at 665 nm and with a dosage rate of 3.2 mW/cm^2 using an argon-pumped dye laser.
# After treated by PDT or paclitaxel alone, the cells were cultured for 48 h at 37° C. in darkness. The phototoxicity was determined by MTT assay (by comparison of the survival rate between the test cells and the untreated cells). The dosage-response survival curve was also plotted. In the Figures, the value was the average of 3 independent experiments, and the error bar stood for standard deviation. In each treatment, the concentration of Compound 3, i.e., HPPH-thymidine conjugate, was 0.06 μM, and the concentration of Compound 1, i.e., HPPH, was 0.06 μM, and the concentration of paclitaxel was 2 nM.
# tumor cells of PC3 line = test: in vivo therapeutic effect of PDT in tumor-bearing Scid mice; conditions: 665 nm; for curative ratio: photosensitizer 0.5 μmol/kg i.v., light 24 h later, 135 J/cm^2, 75 mW/cm^2, 60 days, 10 mice; for mice with no tumor relapse observed after 60 days: photosensitizer 0.5 μmol/kg, 135 J/cm^2, 75 mW/cm^2
# Procedure: Procedure: subcutaneous injection of 3×10^5 tumor cells were performed to the mice, and the cells were allowed to grow so that the diameter can reach 4-5 mm. The hairs at the inoculation site were shaved one day before laser irradiation, and the photosensitizer at various concentrations was intravenously injected to the mice. The mice were not anesthetized, and were limited in a plastic circle 24 h after photosensitizer injection (such as Compound 1 or 3). Subsequently, light treatment was performed after the emission wavelength was tuned to the activation wavelength of the drug using an argon-pumped dye laser monochromes, wherein paclitaxel was additionally injected 8 h before exposure in the combination therapy group. The parameters involved in the therapy included a diameter of 1 cm^2, fluence rate of 75 mW/cm^2 and total light dosage of 135 J/cm^2.
# If tumor growth was observed, two perpendicular values L and W (perpendicular to L) were used for the detection, and the volume of tumor can be calculated according to the equation V=(L×W^2)/2. If no evidence for regeneration can be observed 60 days after PDT therapy, the mice can be considered as cured. There were 10 mice in each group at each concentration.
# The dosages of HPPH and HPPH-thymidine conjugate used in this experiment were both 0.5 μmol/kg. The single dosage of paclitaxel for additional injection 8 h before exposure was 35 mg/kg. The irradiation parameters included 665 nm, 135 J/cm^2, and 75 mW/cm^2. The curative ratio can be simply calculated based on the equation: number of mice without tumor regeneration×100%/total number of mice. For example, 60 days after administration of Compound 3, i.e., HPPH-thymidine conjugate of the present invention, there were 5 mice without tumor regeneration, and there were totally 10 mice in each group. Accordingly, the curative ratio is 5×100%/10, i.e., 50%.
# [2] = tested on: PC-3 (human prostatic cancer) cell line; test: in vitro light cytotoxicity test of PDT at 675 nm or 703 nm (MTT); type: cell-based
# Procedure: The in vitro therapeutic effect of PDT was compared among the following compounds in PC-3 (human prostatic cancer) cell line by in vitro light cytotoxicity test. The procedure was the same as that in Example 4. Briefly, PC3 cells were coated onto the wells of a 96-well plate and adhered for 6-24 h. Subsequently, the cells were treated by the PDT photosensitizer at various concentrations for 24 h, followed by irradiation at 675 nm (dose rate of 3.2 mW/cm^2) or 703 nm (dose rate of 3.2 mW/cm^2) using various high dosages. After 48 h, the cell growth was evaluated by colorimetry, wherein the insoluble formazan product generated in MTT method was dissolved and its concentration was detected at 570 nm through optical density.
# The results of the treatment at 675 nm were shown in FIG. 4, wherein PLH-14 was Compound 5 in Example 2, and PLH-13 was Compound 6, i.e., thymidine conjugate of Compound 5, in Example 2. The concentration of both PLH-13 and PLH-14 was 0.1 μM. The results of the treatment at 703 nm were shown in FIG. 5, wherein 277-COOH was Compound 7 in Example 3, and PLH-12 was Compound 8, i.e., thymidine conjugate of Compound 7, in Example 3. The concentration of both 277-COOH and PLH-12 was 0.05 μM. As shown in FIG. 4 and FIG. 5, the in vitro therapeutic effect of PDT using the photosensitizer was enhanced by conjugation of Compound 5, […] Compound 7 with thymidine.
# PC3 cell line [3] = test: morphology change by DAPI staining; type: cell-based, human; conditions: paclitaxel pretreatment
compound,measurement,setting,value
"CCCCCCOC(C)c1c(C)c2cc3nc(c4c5[nH]c(cc6nc(cc1[nH]2)C(C)=C6CC)c(C)c5C(=O)C4)C(CCC(=O)OCC1OC(n2cc(C)c(=O)[nH]c2=O)CC1O)C3C (centres unmarked) [Compound 3, 17^3-thymidylyl-3-((1′-n-hexyloxy)ethyl)-3-devinyl-pyropheophorbide]",light dosage of IC50,"PC3 cell line [1]; PDT with Compound 3 0.06 μM alone, 665 nm, 3.2 mW/cm^2, MTT after 48 h",0.13 J/cm^2
same,survival rate,"PC3 cell line [1]; light dosage 0.25 J/cm^2, before action of paclitaxel",100%
same,survival rate,"PC3 cell line [1]; light dosage 0.25 J/cm^2, under the action of paclitaxel (0.000704)",80%
same,"in vitro therapeutic effect of PDT (cell survival vs light dosage, FIG. 3)","PC3 cell line [1]; photosensitizer 0.06 μM, paclitaxel 2 nM, 665 nm",higher than that using HPPH
same,curative ratio,tumor cells of PC3 line,50%
same,mice with no tumor relapse observed after 60 days,tumor cells of PC3 line,5/10
"2-((1′-n-hexyloxy)ethyl)-2-devinyl-pyropheophorbide-α [Compound 1, reference compound]",curative ratio,tumor cells of PC3 line,30%
same,mice with no tumor relapse observed after 60 days,tumor cells of PC3 line,3/10
CCCCOC(C)c1c(C)c2cc3nc(c4c5[nH]c(cc6nc(cc1[nH]2)C(C)=C6CC)c(C)c5C(=O)N(CCCC)C4=O)C(CCC(=O)OCC1OC(n2cc(C)c(=O)[nH]c2=O)CC1O)C3C (centres unmarked) [Compound 8],"in vitro therapeutic effect of PDT (relative growth rate, FIG. 5)","[2]; 703 nm, 3.2 mW/cm^2, 0.05 μM, compared with unconjugated 277-COOH (Compound 7)",enhanced
CC(=O)O[C@H]1C(=O)[C@@]2(C)[C@H]([C@H](OC(=O)c3ccccc3)[C@]3(O)C[C@H](OC(=O)[C@H](O)[C@@H](NC(=O)c4ccccc4)c4ccccc4)C(C)=C1C3(C)C)[C@]1(OC(C)=O)CO[C@@H]1C[C@@H]2O [paclitaxel],mechanism of cell death,PC3 cell line [3],apoptosis mechanism
"CCCCCCOC(C)c1c(C)c2[nH]c1cc1nc(cc3[nH]c4c(c5nc(c2-c2ccc(C(=O)OCC6OC(n7cc(C)c(=O)[nH]c7=O)CC6O)cc2)C(C)C5CCC(=O)OCC2OC(n5cc(C)c(=O)[nH]c5=O)CC2O)CC(=O)c4c3C)C(CC)=C1C (centres unmarked) [Compound 6, 17^3-thymidylyl-20-(4-thymidylyloxycarbonyl)phenyl-3-((1′-n-hexyloxy)ethyl)-3-devinyl-pyro pheophorbide]","in vitro therapeutic effect of PDT (percentage of control growth, FIG. 4)","[2]; 675 nm, 3.2 mW/cm^2, 0.1 μM, compared with unconjugated PLH-14 (Compound 5)",enhanced
